In PMC8472786, “Inhibitory Effects of Artificial Sweeteners on Bacterial Quorum Sensing” (International Journal of Molecular Sciences, 2021):
Where a SMILES comes first, the peptide text is derived from it.

These compounds were tested against T1, LasR (Pseudomonas aeruginosa, UniProt P25084) (assay: microscale thermophoresis with fluorescently labeled purified LasR).
T1 construct: full-length LasR
Assay type: binding

T1 sequence (P25084 whole entry): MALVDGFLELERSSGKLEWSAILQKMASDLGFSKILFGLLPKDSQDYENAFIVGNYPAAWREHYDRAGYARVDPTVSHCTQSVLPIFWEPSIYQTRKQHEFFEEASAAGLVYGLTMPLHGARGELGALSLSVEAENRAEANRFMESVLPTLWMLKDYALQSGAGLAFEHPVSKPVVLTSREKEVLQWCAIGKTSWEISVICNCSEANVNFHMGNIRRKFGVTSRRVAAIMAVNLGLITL

Compound | Kd
COC(=O)[C@H](Cc1ccccc1)NC(=O)[C@@H](N)CC(=O)O [aspartame] (H-Asp-Phe-OMe) | 11.8 µM
O=C1NS(=O)(=O)c2ccccc21 [saccharin] | 12.9 µM
OC[C@H]1O[C@H](O[C@]2(CCl)O[C@H](CCl)[C@@H](O)[C@@H]2O)[C@H](O)[C@@H](O)[C@H]1Cl [sucralose] | 12.8 µM
